In the supplement of paper PMC11208160:

Assay: recombinant UMI read abundance after kanamycin selection (control-corrected) (log10(CPM+1)); higher = more efficient recombination; extreme values may be limits of the assay; sequences stand for … in AGTGCAGAGAAAATCGGCCAGTTTTCTCTGCCTGCAGTCCGCATGCCGTGGGACCCCTTGGGTTCTAACCTGTTGCCTAGATTTATGCAGCGGACTGCCTTTCTCCCAAAGTGATAAACCGG…AGGTTGGTTTCACT; site = the 11-nt donor
Protocol: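 Pooled E. coli donor-specificity screen for the IS621 bridge recombinase. Each library member carries a reprogrammed 11-nt donor and a full-length LE bridge RNA expressed in cis from the natural promoter, with a paired donor-binding loop (8-nt LDG + 4-nt RDG) and a target-binding loop fixed to T5. It is co-electroporated with a T5 target plasmid; recombinase is induced with 0.07 mM IPTG and recombinants are selected on kanamycin. UMIs are counted as CPM, averaged over two biological replicates and corrected by the unselected control. Molecule = full bridge RNA written as DNA, built from the T5 scaffold: LDG = donor specificity nt 1-8, RDG = reverse complement of nt 8-11.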
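Also: IS621 bridge recombinase in Escherichia coli cells against a fixed T5 target plasmid.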

Sequence | recombinant UMI read abundance (log10)
ACGAGTGCATGGACCGGTTTTCCCGGTAATCCGTATTTGGT (site ACAAGTGCTAC) | 2.22
ACGAGTGCATGGACCGGTTTTCCCGGTAATCCGTATTTGGT (site ACCAGTGCTAC) | 0.837
ACGAGTGCATGGACCGGTTTTCCCGGTAATCCGTATTTGGT (site ACGAGTGCTAC) | 2.31
ACGAGTGCATGGACCGGTTTTCCCGGTAATCCGTATTTGGT (site ACTAGTGCTAC) | 1.22
ACGCAATCATGGACCGGTTTTCCCGGTAATCCGTATTTGAT (site ACGCAATCTAT) | 2.55
ACGCACGCATGGACCGGTTTTCCCGGTAATCCGTATTTGCA (site ACGCACGCTTG) | 2.71
ACGCCTACATGGACCGGTTTTCCCGGTAATCCGTATTTGAG (site ACGCCTACTCT) | 0.69
ACGCGCACATGGACCGGTTTTCCCGGTAATCCGTATTTGTT (site ACGCGCACTAA) | 1.61
ACGCGTCCATGGACCGGTTTTCCCGGTAATCCGTATTTGAC (site ACGCGTCCTGT) | 1.55
ACGGAACCATGGACCGGTTTTCCCGGTAATCCGTATTTGAG (site ACGGAACCTCT) | 0
ACGGAATCATGGACCGGTTTTCCCGGTAATCCGTATTTGTC (site ACGGAATCTGA) | 1.95
ACGGATTCATGGACCGGTTTTCCCGGTAATCCGTATTTGCG (site ACGGATTCTCG) | 2.66
ACGTAGACATGGACCGGTTTTCCCGGTAATCCGTATTTGGG (site ACATAGACTCC) | 0.351
ACGTAGACATGGACCGGTTTTCCCGGTAATCCGTATTTGGG (site ACCTAGACTCC) | 0.0219
ACGTAGACATGGACCGGTTTTCCCGGTAATCCGTATTTGGG (site ACGTAGACTCC) | 0.4
ACGTAGACATGGACCGGTTTTCCCGGTAATCCGTATTTGGG (site ACTTAGACTCC) | 0.0197
ACGTCTACATGGACCGGTTTTCCCGGTAATCCGTATTTGTG (site ACATCTACTCA) | 0.796
ACGTCTACATGGACCGGTTTTCCCGGTAATCCGTATTTGTG (site ACCTCTACTCA) | 0.39
ACGTCTACATGGACCGGTTTTCCCGGTAATCCGTATTTGTG (site ACGTCTACTCA) | 0.512
ACGTCTACATGGACCGGTTTTCCCGGTAATCCGTATTTGTG (site ACTTCTACTCA) | 0.0124
ACGTCTGCATGGACCGGTTTTCCCGGTAATCCGTATTTGCT (site ACGTCTGCTAG) | 1.98
ACTAACCCATGGACCGGTTTTCCCGGTAATCCGTATTTGGC (site ACTAACCCTGC) | 0
ACTAATGCATGGACCGGTTTTCCCGGTAATCCGTATTTGGT (site ACTAATGCTAC) | 1.88
ACTAATGCATGGACCGGTTTTCCCGGTAATCCGTATTTGGT (site ACTACTGCTAC) | 0.116

Sequence | recombinant UMI read abundance (log10)
ACTAATGCATGGACCGGTTTTCCCGGTAATCCGTATTTGGT (site ACTAGTGCTAC) | 0.00699
ACTAATGCATGGACCGGTTTTCCCGGTAATCCGTATTTGGT (site ACTATTGCTAC) | 0.568
ACTACAACATGGACCGGTTTTCCCGGTAATCCGTATTTGAG (site ACTAAAACTCT) | 0.00762
ACTACAACATGGACCGGTTTTCCCGGTAATCCGTATTTGAG (site ACTACAACTCT) | 1.22
ACTACAACATGGACCGGTTTTCCCGGTAATCCGTATTTGAG (site ACTAGAACTCT) | 0.216
ACTACAACATGGACCGGTTTTCCCGGTAATCCGTATTTGAG (site ACTATAACTCT) | 0.494
ACTAGAACATGGACCGGTTTTCCCGGTAATCCGTATTTGAA (site ACTAGAACTAT) | 0
ACTAGAACATGGACCGGTTTTCCCGGTAATCCGTATTTGAA (site ACTAGAACTCT) | 0
ACTAGAACATGGACCGGTTTTCCCGGTAATCCGTATTTGAA (site ACTAGAACTGT) | 0
ACTAGAACATGGACCGGTTTTCCCGGTAATCCGTATTTGAA (site ACTAGAACTTT) | 1.45
ACTAGAACATGGACCGGTTTTCCCGGTAATCCGTATTTGAC (site ACTAGAACTAT) | 0.00676
ACTAGAACATGGACCGGTTTTCCCGGTAATCCGTATTTGAC (site ACTAGAACTCT) | 0.0218
ACTAGAACATGGACCGGTTTTCCCGGTAATCCGTATTTGAC (site ACTAGAACTGT) | 2.13
ACTAGAACATGGACCGGTTTTCCCGGTAATCCGTATTTGAC (site ACTAGAACTTT) | 0.322
ACTAGAACATGGACCGGTTTTCCCGGTAATCCGTATTTGAT (site ACTAGAACTAT) | 1.24
ACTAGAACATGGACCGGTTTTCCCGGTAATCCGTATTTGAT (site ACTAGAACTCT) | 0.0111
ACTAGAACATGGACCGGTTTTCCCGGTAATCCGTATTTGAT (site ACTAGAACTGT) | 0
ACTAGAACATGGACCGGTTTTCCCGGTAATCCGTATTTGAT (site ACTAGAACTTT) | 0.0117
ACTAGATCATGGACCGGTTTTCCCGGTAATCCGTATTTGAG (site ACTAGAACTCT) | 0.00628
ACTAGATCATGGACCGGTTTTCCCGGTAATCCGTATTTGAG (site ACTAGACCTCT) | 0.0156
ACTAGATCATGGACCGGTTTTCCCGGTAATCCGTATTTGAG (site ACTAGAGCTCT) | 0.00838
ACTAGATCATGGACCGGTTTTCCCGGTAATCCGTATTTGAG (site ACTAGATCTCT) | 2.52
ACTAGTACATGGACCGGTTTTCCCGGTAATCCGTATTTGAG (site ACTAGAACTCT) | 0.692
ACTAGTACATGGACCGGTTTTCCCGGTAATCCGTATTTGAG (site ACTAGCACTCT) | 0.0245

Sequence | recombinant UMI read abundance (log10)
ACTAGTACATGGACCGGTTTTCCCGGTAATCCGTATTTGAG (site ACTAGGACTCT) | 0.0174
ACTAGTACATGGACCGGTTTTCCCGGTAATCCGTATTTGAG (site ACTAGTACTCT) | 1.35
ACTAGTGCATGGACCGGTTTTCCCGGTAATCCGTATTTGGG (site ACTAGTGCTAC) | 0.0186
ACTAGTGCATGGACCGGTTTTCCCGGTAATCCGTATTTGGG (site ACTAGTGCTCC) | 0.376
ACTAGTGCATGGACCGGTTTTCCCGGTAATCCGTATTTGGG (site ACTAGTGCTGC) | 0
ACTAGTGCATGGACCGGTTTTCCCGGTAATCCGTATTTGGG (site ACTAGTGCTTC) | 0.021
ACTAGTGCATGGACCGGTTTTCCCGGTAATCCGTATTTGTT (site ACTAGTGCTAA) | 1.35
ACTAGTGCATGGACCGGTTTTCCCGGTAATCCGTATTTGTT (site ACTAGTGCTAC) | 0.00478
ACTAGTGCATGGACCGGTTTTCCCGGTAATCCGTATTTGTT (site ACTAGTGCTAG) | 1.16
ACTAGTGCATGGACCGGTTTTCCCGGTAATCCGTATTTGTT (site ACTAGTGCTAT) | 0.242
ACTATAACATGGACCGGTTTTCCCGGTAATCCGTATTTGAG (site ACTAAAACTCT) | 0.00383
ACTATAACATGGACCGGTTTTCCCGGTAATCCGTATTTGAG (site ACTACAACTCT) | 0.348
ACTATAACATGGACCGGTTTTCCCGGTAATCCGTATTTGAG (site ACTAGAACTCT) | 0.395
ACTATAACATGGACCGGTTTTCCCGGTAATCCGTATTTGAG (site ACTATAACTCT) | 1.72
ACTATACCATGGACCGGTTTTCCCGGTAATCCGTATTTGTA (site ACTATACCTTA) | 0.0158
ACTATTGCATGGACCGGTTTTCCCGGTAATCCGTATTTGGT (site ACTAATGCTAC) | 0.108
ACTATTGCATGGACCGGTTTTCCCGGTAATCCGTATTTGGT (site ACTACTGCTAC) | 0.0131
ACTATTGCATGGACCGGTTTTCCCGGTAATCCGTATTTGGT (site ACTAGTGCTAC) | 0.023
ACTATTGCATGGACCGGTTTTCCCGGTAATCCGTATTTGGT (site ACTATTGCTAC) | 1.91
ACTCAAGCATGGACCGGTTTTCCCGGTAATCCGTATTTGCA (site ACTCAAGCTTG) | 2.26
ACTCAATCATGGACCGGTTTTCCCGGTAATCCGTATTTGAG (site ACTCAATCTCT) | 1.69
ACTCCAACATGGACCGGTTTTCCCGGTAATCCGTATTTGTC (site ACTCCAACTGA) | 1.34
ACTCCAGCATGGACCGGTTTTCCCGGTAATCCGTATTTGAT (site ACTCCAGCTAT) | 2.13
ACTCGCCCATGGACCGGTTTTCCCGGTAATCCGTATTTGTT (site ACTCGCCCTAA) | 1.08
